Laboratory results as given in patent US9655884B2, “Antiparasitic use of isoxazoline compounds” (Intervet Inc., priority 2013, dated 2017).

Tested on: adult fleas (C. felis)
Experiment: In vitro membrane feeding exposure to assess flea reproduction
Parameters: species or system Ctenocephalides felis
Conditions: for Pupal Development Control / Larval Emergence: eggs of parent fleas fed 0.09 ng/mL in blood
Method: A membrane feeding method [Wade S E, Georgi J R. Survival and reproduction of artificially fed cat fleas, Ctenocephalides felis Bouché (Siphonaptera: Pulicidae). J Med Entomol 1988, 25: 186-190.] was modified to assess the impact of fluralaner exposure on flea reproduction. Defibrinated sheep blood was prepared in a series of dilutions with fluralaner to obtain concentrations between 50.0 and 0.09 ng/mL. These test solutions were prepared twice and each preparation was tested in duplicate resulting in a total of 4 replicates per concentration, along with a fluralaner negative solvent control (a solvent concentration equivalent to that of the highest concentrated fluralaner test solution) and an untreated control.
Unfed adult fleas (C. felis; 20 males and 20 females) were placed into a plastic unit that was then closed with a gauze lid. A grid inside the plastic unit divided the unit into 2 chambers, an upper chamber for flea feeding and a lower chamber for egg collection. Test or control blood preparations (2 ml) were placed in an artificial membrane closed glass tube that was then placed on the plastic unit as the food source. Feeding units were incubated (38° C. and 60% RH) for 10 days. Test and negative control blood preparations were freshly prepared and exchanged (on days 1, 3, 5, and 8) to permit continuous flea feeding. Fleas were transferred into fresh plastic units on Days 5 and 8 to facilitate egg collection. Collected eggs were mixed with flea nourishment medium and incubated (28° C. and 80% RH) in darkness for 22 (±3) days to enable flea development. Parameters recorded were flea survival, oviposition control, egg hatchability, pupa control, flea-emergence control and reproduction inhibition.

[1] = 0.09 ng/mL in blood, exposure day 3
[2] = 0.09 ng/mL in blood, exposure day 4
[3] = 0.09 ng/mL in blood, exposure day 5
[4] = 0.09 ng/mL in blood, exposure day 8
[5] = 0.09 ng/mL in blood, exposure day 9
[6] = 0.09 ng/mL in blood, exposure day 10
[7] = 0.19 ng/mL in blood, exposure day 3
[8] = 0.19 ng/mL in blood, exposure day 4
[9] = 0.19 ng/mL in blood, exposure day 5
[10] = 0.19 ng/mL in blood, exposure day 8
[11] = 0.19 ng/mL in blood, exposure day 9
[12] = 0.19 ng/mL in blood, exposure day 10
[13] = 0.39 ng/mL in blood, exposure day 3
[14] = 0.39 ng/mL in blood, exposure day 4
[15] = 0.39 ng/mL in blood, exposure day 5
[16] = 0.39 ng/mL in blood, exposure day 8
[17] = 0.39 ng/mL in blood, exposure day 9
[18] = 0.39 ng/mL in blood, exposure day 10
[19] = 0.78 ng/mL in blood, exposure day 3
[20] = 0.78 ng/mL in blood, exposure day 4
[21] = 0.78 ng/mL in blood, exposure day 5
[22] = 0.78 ng/mL in blood, exposure day 8
[23] = 0.78 ng/mL in blood, exposure day 9
[24] = 0.78 ng/mL in blood, exposure day 10
[25] = 1.56 ng/mL in blood, exposure day 3
[26] = 1.56 ng/mL in blood, exposure day 4
[27] = 1.56 ng/mL in blood, exposure day 5
[28] = 1.56 ng/mL in blood, exposure day 8
[29] = 1.56 ng/mL in blood, exposure day 9
[30] = 1.56 ng/mL in blood, exposure day 10
[31] = 3.13 ng/mL in blood, exposure day 3
[32] = 3.13 ng/mL in blood, exposure day 4
[33] = 3.13 ng/mL in blood, exposure day 5
[34] = 3.13 ng/mL in blood, exposure day 8
[35] = 3.13 ng/mL in blood, exposure day 9
[36] = 3.13 ng/mL in blood, exposure day 10
[37] = 6.25 ng/mL in blood, exposure day 3
[38] = 6.25 ng/mL in blood, exposure day 4
[39] = 6.25 ng/mL in blood, exposure day 5
[40] = 6.25 ng/mL in blood, exposure day 8
[41] = 6.25 ng/mL in blood, exposure day 9
[42] = 6.25 ng/mL in blood, exposure day 10
[43] = 12.5 ng/mL in blood, exposure day 3
[44] = 12.5 ng/mL in blood, exposure day 4
[45] = 12.5 ng/mL in blood, exposure day 5
[46] = 12.5 ng/mL in blood, exposure day 8
[47] = 12.5 ng/mL in blood, exposure day 9
[48] = 12.5 ng/mL in blood, exposure day 10
[49] = 25.0 ng/mL in blood, exposure day 3
[50] = 25.0 ng/mL in blood, exposure day 4
[51] = 25.0 ng/mL in blood, exposure day 5
[52] = 50.0 ng/mL in blood, exposure day 3
[53] = 50.0 ng/mL in blood, exposure day 4
[54] = 50.0 ng/mL in blood, exposure day 5

Cc1cc(C2=NOC(c3cc(Cl)cc(Cl)c3)(C(F)(F)F)C2)ccc1C(=O)NCC(=O)NCC(F)(F)F (stereo not shown) [fluralaner, 4-[5-(3,5-Dichlorophenyl)-5-trifluoromethyl-4,5-dihydroisoxazol-3-yl]-2-methyl-N-[(2,2,2-trifluoro-ethylcarbamoyl)-methyl]-benzamide] was tested, and the “Oviposition Control” value (0.09 ng/mL in blood, arithmetic mean of exposure days) was 7.9%, the “Flea Survival” value (0.09 ng/mL in blood, exposure day 2) was 100% and the “Flea Survival” value [1] was 100%. For the same compound, the “Oviposition Control” value [1] was 0%, the “Flea Survival” value [2] was 100% and the “Oviposition Control” value [2] was 11.3%. For the same compound, the “Flea Survival” value [3] was 100%, the “Oviposition Control” value [3] was 10.9% and the “Flea Survival” value [4] was 100%. For the same compound, the “Oviposition Control” value [4] was 16.7%, the “Flea Survival” value [5] was 100% and the “Oviposition Control” value [5] was 0.3%. For the same compound, the “Flea Survival” value [6] was 100%, the “Oviposition Control” value [6] was 8.1% and the “Oviposition Control” value (0.19 ng/mL in blood, arithmetic mean of exposure days) was 9.2%. The “Flea Survival” value (0.19 ng/mL in blood, exposure day 2) was 100%, the “Flea Survival” value [7] was 100% and the “Oviposition Control” value [7] was 0%. For the same compound, the “Flea Survival” value [8] was 100%, the “Oviposition Control” value [8] was 5.1% and the “Flea Survival” value [9] was 100%. For the same compound, the “Oviposition Control” value [9] was 21.0%, the “Flea Survival” value [10] was 100% and the “Oviposition Control” value [10] was 15.1%. The “Flea Survival” value [11] was 100%, the “Oviposition Control” value [11] was 0% and the “Flea Survival” value [12] was 100%. The “Oviposition Control” value [12] was 13.9%, the “Oviposition Control” value (0.39 ng/mL in blood, arithmetic mean of exposure days) was 16.1% and the “Flea Survival” value (0.39 ng/mL in blood, exposure day 2) was 100%. The “Flea Survival” value [13] was 100%, the “Oviposition Control” value [13] was 6.72% and the “Flea Survival” value [14] was 100%. The “Oviposition Control” value [14] was 22.8%, the “Flea Survival” value [15] was 100% and the “Oviposition Control” value [15] was 23.2%. For the same compound, the “Flea Survival” value [16] was 100%, the “Oviposition Control” value [16] was 23.8% and the “Flea Survival” value [17] was 100%. The “Oviposition Control” value [17] was 0%, the “Flea Survival” value [18] was 98.7% and the “Oviposition Control” value [18] was 20.3%. For the same compound, the “Oviposition Control” value (0.78 ng/mL in blood, arithmetic mean of exposure days) was 9.4%, the “Flea Survival” value (0.78 ng/mL in blood, exposure day 2) was 100% and the “Flea Survival” value [19] was 100%. For the same compound, the “Oviposition Control” value [19] was 8.7%, the “Flea Survival” value [20] was 100% and the “Oviposition Control” value [20] was 3.0%. For the same compound, the “Flea Survival” value [21] was 100%, the “Oviposition Control” value [21] was 13.8% and the “Flea Survival” value [22] was 100%. The “Oviposition Control” value [22] was 12.5%, the “Flea Survival” value [23] was 100% and the “Oviposition Control” value [23] was 0%. For the same compound, the “Flea Survival” value [24] was 100%, the “Oviposition Control” value [24] was 18.5% and the “Oviposition Control” value (1.56 ng/mL in blood, arithmetic mean of exposure days) was 21.1%. For the same compound, the “Flea Survival” value (1.56 ng/mL in blood, exposure day 2) was 100%, the “Flea Survival” value [25] was 100% and the “Oviposition Control” value [25] was 0%. The “Flea Survival” value [26] was 99.4%, the “Oviposition Control” value [26] was 0% and the “Flea Survival” value [27] was 99.1%. The “Oviposition Control” value [27] was 17.3%, the “Flea Survival” value [28] was 93.9% and the “Oviposition Control” value [28] was 49.8%. For the same compound, the “Flea Survival” value [29] was 92.9%, the “Oviposition Control” value [29] was 30.1% and the “Flea Survival” value [30] was 90.3%. The “Oviposition Control” value [30] was 29.2%, the “Oviposition Control” value (3.13 ng/mL in blood, arithmetic mean of exposure days) was 50.5% and the “Flea Survival” value (3.13 ng/mL in blood, exposure day 2) was 100%. For the same compound, the “Flea Survival” value [31] was 100%, the “Oviposition Control” value [31] was 32.0% and the “Flea Survival” value [32] was 98.7%. The “Oviposition Control” value [32] was 35.7%, the “Flea Survival” value [33] was 97.8% and the “Oviposition Control” value [33] was 43.1%. The “Flea Survival” value [34] was 83.1%, the “Oviposition Control” value [34] was 70.5% and the “Flea Survival” value [35] was 79.5%. The “Oviposition Control” value [35] was 59.9%, the “Flea Survival” value [36] was 78.8% and the “Oviposition Control” value [36] was 62.0%. The “Oviposition Control” value (6.25 ng/mL in blood, arithmetic mean of exposure days) was 80.6%, the “Flea Survival” value (6.25 ng/mL in blood, exposure day 2) was 100% and the “Flea Survival” value [37] was 100%. The “Oviposition Control” value [37] was 82.6%, the “Flea Survival” value [38] was 97.5% and the “Oviposition Control” value [38] was 85.9%. For the same compound, the “Flea Survival” value [39] was 92.8%, the “Oviposition Control” value [39] was 81.3% and the “Flea Survival” value [40] was 85.0%. The “Oviposition Control” value [40] was 79.9%, the “Flea Survival” value [41] was 73.1% and the “Oviposition Control” value [41] was 67.5%. The “Flea Survival” value [42] was 69.7%, the “Oviposition Control” value [42] was 86.4% and the “Oviposition Control” value (12.5 ng/mL in blood, arithmetic mean of exposure days) was 99.6%. For the same compound, the “Flea Survival” value (12.5 ng/mL in blood, exposure day 2) was 100%, the “Flea Survival” value [43] was 100% and the “Oviposition Control” value [43] was 99.6%. The “Flea Survival” value [44] was 67.5%, the “Oviposition Control” value [44] was 100% and the “Flea Survival” value [45] was 38.9%. For the same compound, the “Oviposition Control” value [45] was 100%, the “Flea Survival” value [46] was 21.7% and the “Oviposition Control” value [46] was 98.9%. For the same compound, the “Flea Survival” value [47] was 17.9%, the “Oviposition Control” value [47] was 99.1% and the “Flea Survival” value [48] was 12.3%. For the same compound, the “Oviposition Control” value [48] was 100%, the “Oviposition Control” value (25.0 ng/mL in blood, arithmetic mean of exposure days) was 100% and the “Flea Survival” value (25.0 ng/mL in blood, exposure day 2) was 90.6%. For the same compound, the “Flea Survival” value [49] was 67.5%, the “Oviposition Control” value [49] was 100% and the “Flea Survival” value [50] was 31.9%. The “Oviposition Control” value [50] was 100%, the “Flea Survival” value [51] was 11.3% and the “Oviposition Control” value [51] was 100%. For the same compound, the “Flea Survival” value (25.0 ng/mL in blood, exposure day 8) was 0%, the “Flea Survival” value (25.0 ng/mL in blood, exposure day 9) was 0% and the “Flea Survival” value (25.0 ng/mL in blood, exposure day 10) was 0%. For the same compound, the “Oviposition Control” value (50.0 ng/mL in blood, arithmetic mean of exposure days) was 100%, the “Flea Survival” value (50.0 ng/mL in blood, exposure day 2) was 78.1% and the “Flea Survival” value [52] was 20.0%. The “Oviposition Control” value [52] was 100%, the “Flea Survival” value [53] was 8.7% and the “Oviposition Control” value [53] was 100%. The “Flea Survival” value [54] was 1.2%, the “Oviposition Control” value [54] was 100% and the “Flea Survival” value (50.0 ng/mL in blood, exposure day 8) was 0%. The “Flea Survival” value (50.0 ng/mL in blood, exposure day 9) was 0%, the “Flea Survival” value (50.0 ng/mL in blood, exposure day 10) was 0% and the “Pupal Development Control” value (arithmetic mean of exposure days) was 4.0%. For the same compound, the “Larval Emergence” value (exposure day 3) was “yes”, the “Pupal Development Control” value (exposure day 3) was 9.1% and the “Larval Emergence” value (exposure day 4) was “yes”. The “Pupal Development Control” value (exposure day 4) was 4.5%, the “Larval Emergence” value (exposure day 5) was “yes” and the “Pupal Development Control” value (exposure day 5) was 1.4%. The “Larval Emergence” value (exposure day 8) was “yes”.
